Measurements as given in article PMC5334615, “Induction of Diverse Bioactive Secondary Metabolites from the Mangrove Endophytic Fungus Trichoderma sp. (Strain 307) by Co-Cultivation with Acinetobacter johnsonii (Strain B2)” (Marine Drugs, 2017).

What was measured:
[1] = tested on: rat prolactinoma MMQ cell lines; assay: MTT cytotoxicity assay, MMQ cells; assay type: cell-based; settings: MTT method, read-out: Cytotoxicity IC50 against MMQ cell lines
Experimental: (§1) The cytotoxic activities against rat pituitary adenoma MMQ and GH3 cell lines were evaluated by MTT assay following the previous process. Briefly, MMQ and GH3 cell lines were seeded in 96-well plates (Corning, New York, NY, USA) at a density of 5 × 10^4 cells per well. Then, 10 μL of MTT reagent was added to each well and incubated at 37 °C with 5% CO2 for 4 h. Subsequently, 100 μL of acidified isopropyl alcohol was added. Then the OD value was measured at 450 nm using a microplate reader and the cell proliferation rate relative to the control was calculated. The IC50 was analyzed by SPSS 13.0 (SPSS, Chicago, IL, USA). Rat normal pituitary cells were used as a positive control.

[2] = MTT cytotoxicity assay, rat normal pituitary cells; assay type: cell-based; settings: rat, rat normal pituitary cells (RPC); MTT method; normal cells used as control; read-out: Cytotoxicity IC50 against rat normal pituitary cells (RPC)
Experimental: as §1

[3] = tested on: rat normal pituitary cells (RPC); assay: MTT cytotoxicity assay, rat normal pituitary cells; assay type: cell-based; settings: tumour cell IC50 compared with RPC IC50
Experimental: as §1

[4] = tested on: rat pituitary adenoma GH3 cell lines; assay: MTT cytotoxicity assay, GH3 cells; assay type: cell-based; settings: MTT method, read-out: Cytotoxicity IC50 against GH3 cell lines
Experimental: as §1

[5] = target: α-glucosidase (Saccharomyces cerevisiae, UniProt P53341); assay type: biochemical
Sequence of α-glucosidase (P53341 whole entry): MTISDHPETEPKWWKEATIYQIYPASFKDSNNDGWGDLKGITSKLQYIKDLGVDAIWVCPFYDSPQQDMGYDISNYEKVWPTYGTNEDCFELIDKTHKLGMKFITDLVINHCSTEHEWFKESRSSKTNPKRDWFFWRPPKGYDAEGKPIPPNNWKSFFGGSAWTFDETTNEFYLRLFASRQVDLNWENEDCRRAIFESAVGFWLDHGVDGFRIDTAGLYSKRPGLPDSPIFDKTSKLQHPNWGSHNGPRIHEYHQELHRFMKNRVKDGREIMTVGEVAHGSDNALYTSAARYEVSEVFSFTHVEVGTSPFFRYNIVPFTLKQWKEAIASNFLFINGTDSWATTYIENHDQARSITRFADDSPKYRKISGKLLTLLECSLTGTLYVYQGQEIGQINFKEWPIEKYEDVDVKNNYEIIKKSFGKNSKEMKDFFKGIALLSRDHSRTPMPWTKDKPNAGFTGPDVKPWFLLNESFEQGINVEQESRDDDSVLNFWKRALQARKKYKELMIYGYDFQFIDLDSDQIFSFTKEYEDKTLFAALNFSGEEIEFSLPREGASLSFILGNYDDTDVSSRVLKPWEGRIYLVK
Experimental: The assay of α-glucosidase inhibitory activity was carried out according to the reported method, with minor modifications. All of the assays were performed under 0.01 M potassium phosphate buffer (pH 7). Enzyme solutions were prepared to give 2.0 Units/mL in 2 mL buffer solution. Test samples were dissolved in dimethyl sulphoxide (DMSO) to give an initial concentration of 4000 μM/L. One-hundred fifty-five microliters of phosphate buffer, 10 μL of test samples, and 10 μL of diluted enzyme solution were mixed in each well of a 96-well microtiter plate. After 20 min incubation at 37 °C, 25 μL of substrate (p-nitrophenyl-α-D-glucopyranoside, 1.5 mg/mL) was added to each well to begin the enzymatic reaction. The reaction was monitored spectrophotometrically by measuring the absorbance at 410 nm for a 1 min interval. […] All measurements were done in triplicate from two independent experiments. The reported IC50 was the average value of two independent experiments.

| SMILES | IC50 [1] [µM] | IC50 [2] [µM] | Cytotoxicity against GH3/MMQ cells, fold better than against RPC cells [3] | IC50 [4] [µM] | α-Glucosidase inhibitory effect, fold better than acarbose [5] |
| --- | --- | --- | --- | --- | --- |
| C[C@H]1CCC(=O)CCCCc2cc(O)cc(O)c2C(=O)O1 [Compound 8, (3S)-6-oxo-de-O-methyllasiodiplodin] | 13.6 | 143 | seven-fold | 21.4 | – |
| C[C@@H]1CCCCCCCc2cc(O)cc(O)c2C(=O)O1 [Compound 9, (3R)-de-O-methyllasiodiplodin] | 6.58 | 6.94 | – | 6.44 | – |
| COc1cc(O)cc2c1C(=O)O[C@H](C)CCCCC/C=C/2 [Compound 16, (E)-9-etheno-lasiodiplodin] | – | – | – | – | seven-fold |
| C[C@@H]1CCCCCCCC(=O)Cc2cc(O)cc(O)c2C(=O)O1 [Compound 17, (3R)-nordinone] | 10.1 | 100 | ten-fold | 12.3 | seven-fold |
